Experimental data published in patent publication US10696674B2, “Spirolactams as inhibitors of ROCK” (BRISTOL-MYERS SQUIBB COMPANY, priority 2016, dated 2020).

target: ROCK2 (Homo sapiens, UniProt O75116); assay: ROCK2 assay (Caliper LABCHIP peptide phosphorylation); type: biochemical; conditions: 5 μM ATP, 1.5 μM peptide substrate
Procedure: The effectiveness of compounds of the present invention as ROCK inhibitors can be determined in a 30 μL assay containing 20 mM HEPES, pH 7.5, 20 mM MgCl2, 0.015% Brij-35, 4 mM DTT, 5 μM ATP and 1.5 μM peptide substrate (FITC-AHA-AKRRRLSSLRA-OH) (SEQ ID NO.1). Compounds were dissolved in DMSO so that the final concentration of DMSO was <2%, and the reaction was initiated with Rho kinase variants. After incubation, the reaction was terminated by the addition of EDTA and the phosphorylated and non-phosphorylated peptides separated using a LABCHIP® 3000 Reader (Caliper Life Sciences). […] Compounds were tested in dose-response format, and the inhibition of kinase activity was calculated at each concentration of compound. The inhibition data were fit using a curve-fitting program to determine the IC50; i.e., the concentration of compound required to inhibit 50% of kinase activity.
Representative Examples were tested in the ROCK2 assay described above and found having ROCK2 inhibitory activity. The ranges of the ROCK2 IC50 values are as follows: ROCK2 IC50: ++++ (<3 nM) +++ (3-30 nM) ++ (30-300 nM) + (300-2000 nM)

Chain of ROCK2 (O75116 whole entry, species assumed): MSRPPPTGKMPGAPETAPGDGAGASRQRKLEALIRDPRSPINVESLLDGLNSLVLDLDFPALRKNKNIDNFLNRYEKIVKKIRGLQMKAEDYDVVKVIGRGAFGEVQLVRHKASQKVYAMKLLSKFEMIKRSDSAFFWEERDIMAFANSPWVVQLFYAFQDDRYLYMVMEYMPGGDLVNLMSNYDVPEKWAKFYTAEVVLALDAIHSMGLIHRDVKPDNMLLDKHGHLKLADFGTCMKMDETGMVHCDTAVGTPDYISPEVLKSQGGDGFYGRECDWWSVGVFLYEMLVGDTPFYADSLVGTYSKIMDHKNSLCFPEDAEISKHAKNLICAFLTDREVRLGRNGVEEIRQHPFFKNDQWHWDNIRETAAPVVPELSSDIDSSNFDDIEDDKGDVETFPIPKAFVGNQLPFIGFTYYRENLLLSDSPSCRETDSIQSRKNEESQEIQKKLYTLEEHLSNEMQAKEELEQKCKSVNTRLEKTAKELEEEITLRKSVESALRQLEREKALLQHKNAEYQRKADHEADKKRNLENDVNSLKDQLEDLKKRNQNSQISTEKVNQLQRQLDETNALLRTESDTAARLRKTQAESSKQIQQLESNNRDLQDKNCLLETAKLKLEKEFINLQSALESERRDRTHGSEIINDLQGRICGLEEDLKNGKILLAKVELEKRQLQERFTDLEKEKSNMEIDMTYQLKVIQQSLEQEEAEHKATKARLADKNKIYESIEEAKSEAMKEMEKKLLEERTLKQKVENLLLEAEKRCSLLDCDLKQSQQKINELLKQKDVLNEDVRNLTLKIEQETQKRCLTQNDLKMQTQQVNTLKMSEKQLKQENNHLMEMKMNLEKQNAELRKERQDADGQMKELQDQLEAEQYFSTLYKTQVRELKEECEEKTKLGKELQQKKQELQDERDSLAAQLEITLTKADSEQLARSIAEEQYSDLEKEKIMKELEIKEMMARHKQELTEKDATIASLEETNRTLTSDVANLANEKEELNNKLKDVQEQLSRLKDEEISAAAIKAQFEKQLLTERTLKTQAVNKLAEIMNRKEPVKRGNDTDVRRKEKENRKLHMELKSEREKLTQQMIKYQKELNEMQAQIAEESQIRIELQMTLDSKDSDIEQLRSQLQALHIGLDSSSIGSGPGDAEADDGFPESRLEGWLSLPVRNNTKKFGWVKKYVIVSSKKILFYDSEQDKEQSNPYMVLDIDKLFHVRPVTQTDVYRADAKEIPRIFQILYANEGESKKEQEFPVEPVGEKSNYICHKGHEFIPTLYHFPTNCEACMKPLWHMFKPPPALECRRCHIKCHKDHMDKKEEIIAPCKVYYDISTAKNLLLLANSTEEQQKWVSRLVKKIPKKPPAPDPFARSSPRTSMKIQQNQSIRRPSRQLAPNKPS

Row | SMILES | IC50
1 | COc1ccc2c(c1)CC1(CCN(c3ccc(-c4cn[nH]c4)cc3)C1=O)O2 (stereo not drawn) [Example 24, 1′-(4-(1H-Pyrazol-4-yl)phenyl)-5-methoxy-3H-spiro[benzofuran-2,3′-pyrrolidin]-2′-one] | < 3 nM
2 | Cc1cccc2c1CC1(CCN(c3ccc(-c4cn[nH]c4)cc3)C1=O)N2 (stereo not drawn) [Example 27, 1′-(4-(1H-Pyrazol-4-yl)phenyl)-4-methylspiro[indoline-2,3′-pyrrolidin]-2′-one] | 3 to 30 nM
3 | O=C1N(c2ccc(-c3cn[nH]c3)cc2)CCC12Cc1ncccc1N2 (stereo not drawn) [Example 28, 1-(4-(1H-Pyrazol-4-yl)phenyl)-1′,3′-dihydrospiro[pyrrolidine-3,2′-pyrrolo[3,2-b]pyridin]-2-one] | 30 to 300 nM
4 | COc1cc(N2CCC3(Cc4ccccc4C3)C2=O)ccc1-c1cn[nH]c1 [Example 35, 1′-(3-Methoxy-4-(1H-pyrazol-4-yl)phenyl)-1,3-dihydrospiro[indene-2,3′-pyrrolidin]-2′-one] | 3 to 30 nM
5 | CC(C)(O)COc1ccc2c(c1)NC1(CCN(c3ccc(-c4cn[nH]c4)cc3)C1=O)C2 (stereo not drawn) [Example 36] | 30 to 300 nM
6 | O=C1N(c2ccc(-c3cn[nH]c3)cc2)CCC12Cc1ccc(O)cc1N2 (stereo not drawn) [Example 37] | < 3 nM
7 | O=C1N(c2ccc(-c3cn[nH]c3)cn2)CCC12Cc1ccccc1N2 (stereo not drawn) [Example 41, 1′-(5-(1H-Pyrazol-4-yl)pyridin-2-yl)spiro[indoline-2,3′-pyrrolidin]-2′-one] | 3 to 30 nM
8 | O=C1N(c2cnc(-c3cn[nH]c3)cn2)CCC12Cc1ccccc1N2 (stereo not drawn) [Example 44, 1′-(5-(1H-Pyrazol-4-yl)pyrazin-2-yl)spiro[indoline-2,3′-pyrrolidin]-2′-one] | 3 to 30 nM
9 | O=C1N(c2ccc(-c3ccncc3)cc2)CCC12Cc1ccccc1N2 (stereo not drawn) [Example 45, 1′-(4-(Pyridin-4-yl)phenyl)spiro[indoline-2,3′-pyrrolidin]-2′-one] | 3 to 30 nM
10 | O=C1N(c2ccc(-c3ccncc3)cc2)CCC12Cc1ccccc1O2 (stereo not drawn) [Example 46, 1′-(4-(Pyridin-4-yl)phenyl)-3H-spiro[benzofuran-2,3′-pyrrolidin]-2′-one] | 3 to 30 nM

Second part, the compound after the results:

Row | IC50 | SMILES
11 | < 3 nM | O=C1N(c2ccc(-c3cn[nH]c3)cc2)CCC12CCc1ccccc1N2 (stereo not drawn) [Example 47, 1-(4-(1H-pyrazol-4-yl)phenyl)-3′,4′-dihydro-1 ^1H-spiro[pyrrolidine-3,2′-quinolin]-2-one]
12 | 30 to 300 nM | O=C1N(c2ccc(-c3cn[nH]c3)cc2)CCC12Cc1ccccc1CN2 (stereo not drawn) [Example 48, 1′-(4-(1H-pyrazol-4-yl)phenyl)-1,4-dihydro-2H-spiro[isoquinoline-3,3′-pyrrolidin]-2′-one]
13 | 3 to 30 nM | O=C1N(c2ccc(-c3ccnc4[nH]ccc34)cc2)CCC12Cc1ccccc1CN2 (stereo not drawn) [Example 49, 1′-(4-(1H-pyrrolo[2,3-b]pyridin-4-yl)phenyl)-1,4-dihydro-2H-spiro[isoquinoline-3,3′-pyrrolidin]-2′-one]
14 | 30 to 300 nM | O=C1N(c2ccc(-c3cn[nH]c3)cc2)CCC12CCc1ccccc1O2 (stereo not drawn) [Example 50, 1′-(4-(1H-pyrazol-4-yl)phenyl)spiro[chromane-2,3′-pyrrolidin]-2′-one]
15 | < 3 nM | CC1(C)c2ccccc2NC12CCN(c1ccc(-c3cn[nH]c3)cc1)C2=O (stereo not drawn) [Example 51, 1′-(4-(1H-pyrazol-4-yl)phenyl)-3,3-dimethylspiro[indoline-2,3′-pyrrolidin]-2′-one]
16 | < 3 nM | O=C1N(c2ccc(-c3cn[nH]c3)cc2)CC(CO)C12Cc1ccccc1N2 (stereo not drawn) [Example 52, 1′-(4-(1H-pyrazol-4-yl)phenyl)-4′-(hydroxymethyl)spiro[indoline-2,3′-pyrrolidin]-2′-one]
17 | < 3 nM | NCC1CN(c2ccc(-c3cn[nH]c3)cc2)C(=O)C12Cc1ccccc1N2 (stereo not drawn) [Example 53, 1′-(4-(1H-pyrazol-4-yl)phenyl)-4′-(aminomethyl)spiro[indoline-2,3′-pyrrolidin]-2′-one]
18 | < 3 nM | O=C1N(c2ccc(-c3cn[nH]c3)cc2)CC(CO)[C@@]12Cc1ccccc1N2 (stereo partly drawn) [Example 54, (2S)-1′-(4-(1H-pyrazol-4-yl)phenyl)-4′-(hydroxymethyl)spiro[indoline-2,3′-pyrrolidin]-2′-one]
19 | 30 to 300 nM | O=C1N(c2ccc(-c3cn[nH]c3)cc2)CC(CO)[C@]12Cc1ccccc1N2 (stereo partly drawn) [Example 55, (2R)-1′-(4-(1H-pyrazol-4-yl)phenyl)-4′-(hydroxymethyl)spiro[indoline-2,3′-pyrrolidin]-2′-one]
20 | < 3 nM | O=C1N(c2ccc(-c3cn[nH]c3)cc2)CC(CO)C12CCc1ccccc1N2 (stereo not drawn) [Example 56, 1-(4-(1H-pyrazol-4-yl)phenyl)-4-(hydroxymethyl)-3′,4′-dihydro-1′H-spiro[pyrrolidine-3,2′-quinolin]-2-one]

tested on: ROCK; assay: not given; conditions: control rats; cited from earlier work

Row | SMILES | blood pressure
21 | C[C@@H](N)[C@H]1CC[C@H](C(=O)Nc2ccncc2)CC1 [Example Y-27632, Y-27632] | only a minor effect on blood pressure

same assay, conditions: spontaneously hypertensive rat, renal hypertensive rat and deoxycortisone acetate salt hypertensive rat models; cited from earlier work

Row | SMILES | blood pressure
22 | C[C@@H](N)[C@H]1CC[C@H](C(=O)Nc2ccncc2)CC1 [Example Y-27632, Y-27632] | significantly decrease blood pressure

tested on: ROCK; assay: not given; conditions: rats, balloon injury model; cited from earlier work

Row | SMILES | neointimal formation
23 | C[C@@H](N)[C@H]1CC[C@H](C(=O)Nc2ccncc2)CC1 [Example Y-27632, Y-27632] | inhibited neointimal formation

tested on: ROCK; assay: not given; conditions: long term treatment; cited from earlier work

Row | SMILES | coronary constrictive remodeling | coronary stenosis
24 | O=S(=O)(c1cccc2cnccc12)N1CCCNCC1 [fasudil] | promote a regression of coronary constrictive remodeling | progressively reduce coronary stenosis

tested on: ROCK; assay: not given; conditions: rat, in vivo; cited from earlier work

Row | SMILES | infarct size and neurologic deficit
25 | O=S(=O)(c1cccc2cnccc12)N1CCCNCC1 [fasudil] | reduce both the infarct size and neurologic deficit

tested on: ROCK; assay: not given; conditions: rat, in vivo; cited from earlier work; remark: another data set of the same source

Row | SMILES | ventricular hypertrophy, fibrosis and function
26 | C[C@@H](N)[C@H]1CC[C@H](C(=O)Nc2ccncc2)CC1 [Example Y-27632, Y-27632] | improve ventricular hypertrophy, fibrosis and function
